The source of these data is patent publication US20170211012A1, “METHOD OF […] FROM MICROBES” (priority 2014, published 2017).

The subject of the assay is Vibrio cholerae. Nature of the assay: Colistin MIC against Vibrio cholerae strains. In kind it is cell-based.

Values joined by “and” are separate entries in the source; they are usually repeats but may differ in a detail not shown here. Equal entries are not always repeated.

For colistin, the “Colistin MIC” value reads like this: (V. cholerae strain 32-14, O antigen not given) above 250 µg/mL; (V. cholerae strain 33-36, O antigen O-1) above 250 µg/mL; (V. cholerae strain 35-44, O antigen O-1) above 250 µg/mL; (V. cholerae strain 50-1, O antigen O-1) 4 µg/mL and 8 µg/mL; (V. cholerae strain 51-2, O antigen O-1) 4 µg/mL; (V. cholerae strain 52-4, O antigen O-1) 4 µg/mL. In addition, the “Colistin MIC” value reads like this: (V. cholerae strain 57-11, O antigen O-139) 4 µg/mL; (V. cholerae strain 58-12, O antigen O-1) 125 µg/mL; (V. cholerae strain 79-35, O antigen O-1) above 250 µg/mL; (V. cholerae strain 114/98931, O antigen O-1) 125 µg/mL; (V. cholerae strain 461/99053, O antigen O-1) above 250 µg/mL; (V. cholerae strain 781, O antigen O-1) above 250 µg/mL. For the same substance, the “Colistin MIC” value is, setting by setting: (V. cholerae strain 1837, O antigen O-139) above 250 µg/mL; (V. cholerae strain FMU-089933, O antigen O-139) 31.5 µg/mL; (V. cholerae strain M-702-3, O antigen O-1) above 250 µg/mL; (V. cholerae strain N16117, O antigen O-1) above 250 µg/mL; (V. cholerae strain N16861, O antigen O-1) above 250 µg/mL; (V. cholerae strain NG288/36, O antigen O-139) above 250 µg/mL. In addition, the “Colistin MIC” value by setting is: (V. cholerae strain NG368/36, O antigen O-139) above 250 µg/mL; (V. cholerae strain NRU-20455, O antigen O-139) 8 µg/mL; (V. cholerae strain NRU-20461, O antigen O-139) 8 µg/mL and 4 µg/mL; (V. cholerae strain O-139 Argentina, O antigen O-139) above 250 µg/mL.
